# What was measured:
# Format in all cases: physicochemical
# [1] = Bulk stability of crystalline forms; settings: for Purity, Bulk (HPLC): Solid state
# From the text: (§1) Solids obtained after bulk stability study were characterized by XRPD and HPLC.
# [2] = Intrinsic dissolution rate (IDR) evaluation in FaSSIF; settings: FaSSIF at 37° C.
# Description: Only one surface of the pellet was exposed (surface area=0.50 cm^2) to 900 mL FaSSIF, the dissolution medium. Temperature of chamber medium was set as 37±0.5° C. Shaft rotation as 100 rpm and sampling time points as 2 min, 5 min, 10 min, 15 min, 20 min, 25 min, 30 min, 35 min, 40 min, 50 min, 60 min, and 120 min. 2 mL sample solution was withdrawn at each time point and centrifuged at 14,000 rpm for 5 min to isolate supernatant. Then concentration of the supernatant was analyzed by HPLC. After 120 min, XRPD of disc surface was measured.
# [3] = Bulk stability of crystalline forms; set-up: key: Color A: All No change of color; settings: Solid state
# From the text: as §1
# Water activity study = settings: acetonitrile/water system, 5° C. and 25° C.
# From the text: These solvent mixtures were saturated with the compound of Formula (I) before addition of the polymorph seeds. […] These solvent mixtures were saturated with the compound of Formula (I) before addition of the polymorph seeds. Obtained suspension was filtered. Solid part (wet cake) was investigated by XRPD.
# [4] = Variable humidity and temperature XRPD experiments
# [5] = Equilibrium solubility in FeSSIF and FaSSIF; settings: for solubility at 24 h: 37 °C, thermodynamic from solid, target concentration 1 mg/mL, HPLC method 1 or 2 (footnote); for impurity in solubility sample: no unit printed for impurity (column head mg/mL)
# Description: (§2) Solid part and liquid part were separated by filtration. Solubility was measured by HPLC. Solid part (wet cake) was investigated by XRPD.
# [6] = Equilibrium solubility in SGF (pH 2.0), 0.1 N HCl (pH 1.2) and phosphate buffer (pH 8.0); settings: for Solubility: target concentration 1 mg/mL, HPLC method 2
# Description: as §2
# [7] = 25° C./92% RH, open container, 1 week
# [8] = 25° C./92% RH, open container, 2 weeks
# [9] = 40° C./75% RH, open container, 1 week
# [10] = 40° C./75% RH, open container, 2 weeks
# [11] = 60° C., tight container, 1 week
# [12] = 60° C., tight container, 2 weeks
# [13] = FaSSIF, pH 6.5, 37° C., 24 hours
# [14] = FeSSIF, pH 5.0, 37° C., 24 hours
# [15] = pH 1.2 (0.1N HCl), 37° C., 24 hours
# [16] = pH 8 (phosphate buffer), 37° C., 24 hours
smiles,measurement,setting,value
"Nc1nc(=O)n(-c2ccccc2Cl)c2nc(C(F)(F)F)ccc12 [Form A, 4-Amino-1-(2-chlorophenyl)-7-(trifluoromethyl)pyrido[2,3-d]pyrimidin-2(1H)-one]","Purity, Bulk (HPLC)",[1]; [7],99.0%
same,"Purity, Bulk (HPLC)",[1]; [8],99.2%
same,"Purity, Bulk (HPLC)",[1]; [9],99.0%
same,"Purity, Bulk (HPLC)",[1]; [10],99.1%
same,"Purity, Bulk (HPLC)",[1]; [11],99.1%
same,"Purity, Bulk (HPLC)",[1]; [12],99.2%
same,Initial purity,"[1]; before stress, HPLC",99.0%
same,chemical stability and physical stability (bulk stability),"[1]; stressed under 25° C./92 RH, 40% C/75% RH and 60° C., XRPD and HPLC",good chemical stability and physical stability
same,XRPD after IDR,[2]; disc surface after 120 min,No form change
same,Concentration detected during IDR test (Comments),"[2]; for Form V and Form A remains same during the whole process, LOQ for Form T and amorphous form",(0.006 mg/mL)
same,Color,[3]; [7],A
same,Color,[3]; [8],A
same,Color,[3]; [9],A
same,Color,[3]; [10],A
same,Color,[3]; [11],A
same,Color,[3]; [12],A
same,"form obtained in water activity experiments (relative stability of Forms A, C, D and E)",Water activity study,highly crystalline Form A was obtained in all the solvent mixtures
same,XRPD (XRPD method 2),[4]; VT14 25° C./37% RH (initial),Form A
same,XRPD (XRPD method 2),[4]; VT15 50° C./37% RH (10 min),Form A
same,XRPD (XRPD method 2),[4]; VT17 250° C./37% RH (10 min),Form U
same,solubility at 24 h,"[5]; FaSSIF, pH 6.5, fassif, pH 6.5, 37° C.",90 µg/mL
same,XRPD of solid after solubility test,[5]; [13],Form A + NaCl
same,final pH,[5]; [13],6.5
same,impurity in solubility sample,[5]; [13],no impurity
same,solubility at 24 h,"[5]; FeSSIF, pH 5, fessif, pH 5.0, 37° C.",240 µg/mL
same,final pH,[5]; [14],5.0
same,impurity in solubility sample,[5]; [14],no impurity
same,form obtained from the solubility study in 0.1 N HCl solution,[6]; 0.1 N HCl,Form R
same,XRPD pattern after the solubility test in 0.1 N HCl and SGF,"[6]; 37° C., 24 hours",two new patterns were obtained
same,form obtained from the solubility study in simulated gastric fluid,"[6]; SGF, pH 2.0",Form Q
same,XRPD of solid after solubility test,"[6]; SGF, pH 2.0, 37° C., 24 hours",Form Q
same,final pH,"[6]; SGF, pH 2.0, 37° C., 24 hours",2.2
same,Solubility,"[6]; SGF, pH 2.0, 37° C., 24 hours",60 µg/mL
same,XRPD of solid after solubility test,[6]; [15],Form R
same,final pH,[6]; [15],1.3
same,Solubility,[6]; [15],100 µg/mL
same,XRPD of solid after solubility test,[6]; [16],Form A
same,final pH,[6]; [16],8.0
same,impurity in solubility sample,[6]; [16],no impurity
same,Solubility,[6]; [16],30 µg/mL

# Source: US20260193254A1, “2-OXOQUINAZOLINE CRYSTALLINE FORMS” (IDEAYA Biosciences, Inc., priority 2022, published 2026)
